{"source": "patent US12559529B2", "about": "“NPY2 receptor agonists” (Boehringer Ingelheim International GmbH, priority 2019, dated 2026)", "target": "T1, Human Neuropeptide Y2 Receptor (Homo sapiens, UniProt P49146)", "T1 construct": "purchased CHEMICON HTS066M", "T1 sequence (P49146 1-381)": "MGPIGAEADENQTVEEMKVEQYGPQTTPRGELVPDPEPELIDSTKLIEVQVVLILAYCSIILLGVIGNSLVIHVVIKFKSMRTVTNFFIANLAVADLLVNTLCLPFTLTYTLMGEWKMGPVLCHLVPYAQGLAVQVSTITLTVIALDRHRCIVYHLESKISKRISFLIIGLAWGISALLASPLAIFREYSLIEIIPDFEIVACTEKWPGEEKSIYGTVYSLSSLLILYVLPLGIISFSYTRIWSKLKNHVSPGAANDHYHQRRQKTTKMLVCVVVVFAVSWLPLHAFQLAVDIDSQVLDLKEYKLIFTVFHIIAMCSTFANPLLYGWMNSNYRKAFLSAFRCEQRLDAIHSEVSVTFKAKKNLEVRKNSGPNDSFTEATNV", "assay": "Radioligand binding competition assay (RLB)", "settings": "Table 3; human 125I-PYY (1-36) 0.02 nM, Y2 receptor membranes; read-out: Ki", "how_it_was_run": "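IC50 values come from nonlinear regression of sigmoidal dose-response curves of filter-bound radioactivity. Peptides competed with radioligand at human Y2 receptor membranes (0.5 μg protein/well) for 2 h at room temperature in pH 7.4 HEPES buffer containing Mg2+, Ca2+ and 0.2% ovalbumin.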", "data": [{"smiles": "CC[C@H](C)[C@H](NC(=O)[C@H](CCC(=O)O)NC(=O)[C@H](C)NC(=O)[C@@H]1CCCN1C(=O)[C@H](CO)NC(=O)[C@H](C)NC(=O)[C@H](CC(=O)O)NC(=O)[C@H](CCC(=O)O)NC(=O)[C@H](CCC(=O)O)NC(=O)[C@@H]1CCCN1C(=O)[C@H](CCCCNC(=O)COCCOCCNC(=O)COCCOCCNC(=O)CC[C@H](NC(=O)CCCCCCCCCCCCCCCCC(=O)O)C(=O)O)NC(=O)[C@H](CCC(=O)O)NC(=O)[C@@H]1CCCN1C(=O)[C@H](C)NC(=O)CC(C)C)C(=O)N[C@@H](CCC(N)=O)C(=O)N[C@@H](CCCNC(=N)N)C(=O)N[C@@H](Cc1ccc(O)cc1)C(=O)N[C@@H](Cc1ccc(O)cc1)C(=O)N[C@H](C(=O)N[C@@H](CO)C(=O)N[C@@H](CC(C)C)C(=O)N[C@@H](CCCNC(=N)N)C(=O)N[C@@H](Cc1c[nH]cn1)C(=O)N[C@@H](Cc1ccc(O)cc1)C(=O)N[C@@H](Cc1ccc(O)cc1)C(=O)N[C@@H](CC(N)=O)C(=O)N[C@@H](Cc1c[nH]c2ccccc12)C(=O)N[C@@H](CC(C)C)C(=O)N[C@H](C(=O)N[C@@H](CCCNC(=N)N)C(=O)N[C@@H](CCC(N)=O)C(=O)N[C@@H](CCCNC(=N)N)C(=O)N[C@@H](Cc1ccc(O)cc1)C(N)=O)[C@@H](C)O)C(C)C", "note": "[Compound 95, N{alpha-4}-(3-methylbutanoyl)-N{epsilon-7}-[2-(2-{2-[2-(2-{2-[(4S)-4-carboxy-4-(17-carboxyheptadecanamido)butanamido]ethoxy}ethoxy)acetamido]ethoxy}ethoxy)acetamido]-[4A,7K,9E,15A,17I,18Q,22V,28Y,30W,31L]hPYY (4-36)]", "values": [{"measurement": "Ki", "value": 660, "unit": "pM"}]}, {"smiles": "CC(C)CC(=O)N[C@@H](C)C(=O)N1CCC[C@H]1C(=O)N[C@@H](C)C(=O)N[C@@H](CCCCNC(=O)COCCOCCNC(=O)COCCOCCNC(=O)CC[C@H](NC(=O)CCCCCCCCCCCCCCCCC(=O)O)C(=O)O)C(=O)N1CCC[C@H]1C(=O)N1CCC[C@H]1C(=O)N[C@@H](CCC(=O)O)C(=O)N[C@@H](CC(=O)O)C(=O)N[C@@H](C)C(=O)N[C@@H](CO)C(=O)N1CCC[C@H]1C(=O)N[C@@H](CCC(=O)O)C(=O)N[C@@H](CCC(=O)O)C(=O)N[C@@H](CC(C)C)C(=O)N[C@@H](CCC(N)=O)C(=O)N[C@@H](CCCNC(=N)N)C(=O)N[C@@H](Cc1ccc(O)cc1)C(=O)N[C@@H](Cc1ccc(O)cc1)C(=O)N[C@H](C(=O)N[C@@H](CO)C(=O)N[C@@H](CC(C)C)C(=O)N[C@@H](CCCNC(=N)N)C(=O)N[C@@H](Cc1c[nH]cn1)C(=O)N[C@@H](Cc1ccc(O)cc1)C(=O)N[C@@H](Cc1ccc(O)cc1)C(=O)N[C@@H](CC(N)=O)C(=O)N[C@@H](Cc1c[nH]c2ccccc12)C(=O)N[C@@H](CC(C)C)C(=O)N[C@H](C(=O)N[C@@H](CCCNC(=N)N)C(=O)N[C@@H](CCC(N)=O)C(=O)N[C@@H](CCCNC(=N)N)C(=O)N[C@@H](Cc1ccc(O)cc1)C(N)=O)[C@@H](C)O)C(C)C", "note": "[Compound 100, N{alpha-4}-(3-methylbutanoyl)-N{epsilon-7}-[2-(2-{2-[2-(2-{2-[(4S)-4-carboxy-4-(17-carboxyheptadecanamido)butanamido]ethoxy}ethoxy)acetamido]ethoxy}ethoxy)acetamido]-[4A,6A,7K,9P,18Q,22V,28Y,30W,31L]hPYY (4-36)]", "values": [{"measurement": "Ki", "value": 440, "unit": "pM"}]}, {"smiles": "CC(C)CC(=O)N[C@@H](C)C(=O)N1CCC[C@H]1C(=O)N[C@@H](CCC(=O)O)C(=O)N[C@@H](CCCCNC(=O)COCCOCCNC(=O)COCCOCCNC(=O)CC[C@H](NC(=O)CCCCCCCCCCCCCCCCC(=O)O)C(=O)O)C(=O)N1CCC[C@H]1C(=O)N[C@@H](CCC(=O)O)C(=O)N[C@@H](CCC(=O)O)C(=O)N[C@@H](CC(=O)O)C(=O)N[C@@H](C)C(=O)N[C@@H](CO)C(=O)N1CCC[C@H]1C(=O)N[C@@H](CCC(=O)O)C(=O)N[C@@H](CCC(=O)O)C(=O)N[C@@H](CC(C)C)C(=O)N[C@@H](CCC(N)=O)C(=O)N[C@@H](CCCNC(=N)N)C(=O)N[C@@H](Cc1ccc(O)cc1)C(=O)N[C@@H](Cc1ccc(O)cc1)C(=O)N[C@H](C(=O)N[C@H](C(=O)N[C@@H](CC(C)C)C(=O)N[C@@H](CCCNC(=N)N)C(=O)N[C@@H](Cc1c[nH]cn1)C(=O)N[C@@H](Cc1ccc(O)cc1)C(=O)N[C@@H](Cc1ccc(O)cc1)C(=O)N[C@@H](CC(N)=O)C(=O)N[C@@H](Cc1c[nH]c2ccccc12)C(=O)N[C@@H](CC(C)C)C(=O)N[C@H](C(=O)N[C@@H](CCCNC(=N)N)C(=O)N[C@@H](CCC(N)=O)C(=O)N[C@@H](CCCNC(=N)N)C(=O)N[C@@H](Cc1ccc(O)cc1)C(N)=O)[C@@H](C)O)[C@@H](C)O)C(C)C", "note": "[Compound 102, N{alpha-4}-(3-methylbutanoyl)-N{epsilon-7}-[2-(2-{2-[2-(2-{2-[(4S)-4-carboxy-4-(17-carboxyheptadecanamido)butanamido]ethoxy}ethoxy)acetamido]ethoxy}ethoxy)acetamido]-[4A,7K,9E,18Q,22V,23T,28Y,30W,31L]hPYY (4-36)]", "values": [{"measurement": "Ki", "value": 870, "unit": "pM"}]}, {"smiles": "CC(C)CC(=O)N[C@@H](C)C(=O)N1CCC[C@H]1C(=O)N[C@@H](CCC(=O)O)C(=O)N[C@@H](CCCCNC(=O)COCCOCCNC(=O)COCCOCCNC(=O)CC[C@H](NC(=O)CCCCCCCCCCCCCCCCC(=O)O)C(=O)O)C(=O)N1CCC[C@H]1C(=O)N[C@@H](CCC(=O)O)C(=O)N[C@@H](CCC(=O)O)C(=O)N[C@@H](CC(=O)O)C(=O)N[C@@H](C)C(=O)N[C@@H](CO)C(=O)N1CCC[C@H]1C(=O)N[C@@H](CCC(=O)O)C(=O)N[C@@H](CCC(=O)O)C(=O)N[C@@H](CC(C)C)C(=O)N[C@@H](CCC(N)=O)C(=O)N[C@@H](CCCCN)C(=O)N[C@@H](Cc1ccc(O)cc1)C(=O)N[C@@H](Cc1ccc(O)cc1)C(=O)N[C@H](C(=O)N[C@@H](C)C(=O)N[C@@H](CC(C)C)C(=O)N[C@@H](CCCNC(=N)N)C(=O)N[C@@H](Cc1c[nH]cn1)C(=O)N[C@@H](Cc1ccc(O)cc1)C(=O)N[C@@H](Cc1ccc(O)cc1)C(=O)N[C@@H](CC(N)=O)C(=O)N[C@@H](Cc1c[nH]c2ccccc12)C(=O)N[C@@H](CC(C)C)C(=O)N[C@H](C(=O)N[C@@H](CCCNC(=N)N)C(=O)N[C@@H](CCC(N)=O)C(=O)N[C@@H](CCCNC(=N)N)C(=O)N[C@@H](Cc1ccc(O)cc1)C(N)=O)[C@@H](C)O)C(C)C", "note": "[Compound 107, N{alpha-4}-(3-methylbutanoyl)-N{epsilon-7}-[2-(2-{2-[2-(2-{2-[(4S)-4-carboxy-4-(17-carboxyheptadecanamido)butanamido]ethoxy}ethoxy)acetamido]ethoxy}ethoxy)acetamido]-[4A,7K,9E,18Q,19K,22V,23A,28Y,30W,31L]hPYY (4-36)]", "values": [{"measurement": "Ki", "value": 1100, "unit": "pM"}]}, {"smiles": "CC(C)CC(=O)N[C@@H](C)C(=O)N1CCC[C@H]1C(=O)N[C@@H](CCC(=O)O)C(=O)N[C@@H](CCCCNC(=O)COCCOCCNC(=O)COCCOCCNC(=O)CC[C@H](NC(=O)CCCCCCCCCCCCCCCCC(=O)O)C(=O)O)C(=O)N1CCC[C@H]1C(=O)N[C@@H](CCC(=O)O)C(=O)N[C@@H](CCC(=O)O)C(=O)N[C@@H](C)C(=O)N[C@@H](C)C(=O)N[C@@H](CO)C(=O)N1CCC[C@H]1C(=O)N[C@@H](CCC(=O)O)C(=O)N[C@@H](CCC(=O)O)C(=O)N[C@@H](CC(C)C)C(=O)N[C@@H](CCC(N)=O)C(=O)N[C@@H](CCCNC(=N)N)C(=O)N[C@@H](Cc1ccc(O)cc1)C(=O)N[C@@H](Cc1ccc(O)cc1)C(=O)N[C@H](C(=O)N[C@@H](CO)C(=O)N[C@@H](CC(C)C)C(=O)N[C@@H](CCCNC(=N)N)C(=O)N[C@@H](Cc1c[nH]cn1)C(=O)N[C@@H](Cc1ccc(O)cc1)C(=O)N[C@@H](Cc1ccc(O)cc1)C(=O)N[C@@H](CC(N)=O)C(=O)N[C@@H](Cc1c[nH]c2ccccc12)C(=O)N[C@@H](CC(C)C)C(=O)N[C@H](C(=O)N[C@@H](CCCNC(=N)N)C(=O)N[C@@H](CCC(N)=O)C(=O)N[C@@H](CCCNC(=N)N)C(=O)N[C@@H](Cc1ccc(O)cc1)C(N)=O)[C@@H](C)O)C(C)C", "note": "[Compound 109, N{alpha-4}-(3-methylbutanoyl)-N{epsilon-7}-[2-(2-{2-[2-(2-{2-[(4S)-4-carboxy-4-(17-carboxyheptadecanamido)butanamido]ethoxy}ethoxy)acetamido]ethoxy}ethoxy)acetamido]-[4A,7K,9E,11A,18Q,22V,28Y,30W,31L]hPYY (4-36)]", "values": [{"measurement": "Ki", "value": 940, "unit": "pM"}]}, {"smiles": "CC(C)CC(=O)N[C@@H](C)C(=O)N1CCC[C@H]1C(=O)N[C@@H](CCC(=O)O)C(=O)N[C@@H](CCCCNC(=O)COCCOCCNC(=O)COCCOCCNC(=O)CC[C@H](NC(=O)CCCCCCCCCCCCCCCCC(=O)O)C(=O)O)C(=O)N1CCC[C@H]1C(=O)N[C@@H](CCC(=O)O)C(=O)N[C@@H](CCC(=O)O)C(=O)N[C@@H](CC(=O)O)C(=O)N[C@@H](C)C(=O)N[C@@H](CCC(=O)O)C(=O)N1CCC[C@H]1C(=O)N[C@@H](CCC(=O)O)C(=O)N[C@@H](CCC(=O)O)C(=O)N[C@@H](CC(C)C)C(=O)N[C@@H](CCC(N)=O)C(=O)N[C@@H](CCCNC(=N)N)C(=O)N[C@@H](Cc1ccc(O)cc1)C(=O)N[C@@H](Cc1ccc(O)cc1)C(=O)N[C@H](C(=O)N[C@@H](CCC(=O)O)C(=O)N[C@@H](CC(C)C)C(=O)N[C@@H](CCCNC(=N)N)C(=O)N[C@@H](Cc1c[nH]cn1)C(=O)N[C@@H](Cc1ccc(O)cc1)C(=O)N[C@@H](Cc1ccc(O)cc1)C(=O)N[C@@H](CC(N)=O)C(=O)N[C@@H](Cc1c[nH]c2ccccc12)C(=O)N[C@@H](CC(C)C)C(=O)N[C@H](C(=O)N[C@@H](CCCNC(=N)N)C(=O)N[C@@H](CCC(N)=O)C(=O)N[C@@H](CCCNC(=N)N)C(=O)N[C@@H](Cc1ccc(O)cc1)C(N)=O)[C@@H](C)O)C(C)C", "note": "[Compound 111, N{alpha-4}-(3-methylbutanoyl)-N{epsilon-7}-[2-(2-{2-[2-(2-{2-[(4S)-4-carboxy-4-(17-carboxyheptadecanamido)butanamido]ethoxy}ethoxy)acetamido]ethoxy}ethoxy)acetamido]-[4A,7K,9E,13E,18Q,22V,23E,28Y,30W,31L]hPYY (4-36)]", "values": [{"measurement": "Ki", "value": 5430, "unit": "pM"}]}]}
